Settings: Liquid, Gas chromatography

CC/C=C/C=C/CCCCCCCCOC(C)=O [(9E,11E)-tetradeca-9,11-dienyl acetate]
Settings | vapor or sublimation pressure [kPa]
298.15 K | 1.5e-05
310 K | 6.3e-05
320 K | 0.00019
330 K | 0.00051
340 K | 0.0013
350 K | 0.0031
360 K | 0.007
370 K | 0.015
380 K | 0.03
390 K | 0.058
400 K | 0.11
410 K | 0.19
420 K | 0.33
430 K | 0.54
440 K | 0.87
450 K | 1.4
460 K | 2.1
470 K | 3
480 K | 4.4
490 K | 6.2
500 K | 8.6

CC/C=C/CCCCCCCCCCOC(C)=O [(E)-tetradec-11-enyl acetate]
Settings | vapor or sublimation pressure [kPa]
298.15 K | 2.8e-05
310 K | 0.00011
320 K | 0.00032
330 K | 0.00086
340 K | 0.0021
350 K | 0.0049
360 K | 0.011
370 K | 0.022
380 K | 0.044
390 K | 0.084
400 K | 0.15
410 K | 0.27
420 K | 0.45
430 K | 0.73
440 K | 1.2
450 K | 1.8
460 K | 2.7
470 K | 3.9
480 K | 5.6
490 K | 7.8
500 K | 11

CCC/C=C\CCCCCCCOC(C)=O [(Z)-dodec-8-enyl acetate]
Settings | vapor or sublimation pressure [kPa]
298 K | 0.00027
310 K | 0.00091
320 K | 0.0023
330 K | 0.0056
340 K | 0.013
350 K | 0.027
360 K | 0.053
370 K | 0.1
380 K | 0.19
390 K | 0.33
400 K | 0.56
410 K | 0.93
420 K | 1.5
430 K | 2.3
440 K | 3.5
450 K | 5.1
460 K | 7.3
470 K | 10
480 K | 14.1
490 K | 19
500 K | 25

CCCC/C=C\CCCCCCCCCCCCOC(C)=O [(Z)-octadec-13-en-1-yl acetate]
Settings | vapor or sublimation pressure [kPa]
298.15 K | 4.1e-07
310 K | 2.2e-06
320 K | 8.2e-06
330 K | 2.7e-05
340 K | 8.3e-05
350 K | 0.00023
360 K | 0.00061
370 K | 0.0015
380 K | 0.0034
390 K | 0.0074
400 K | 0.015
410 K | 0.03
420 K | 0.056
430 K | 0.1
440 K | 0.18
450 K | 0.3
460 K | 0.48
470 K | 0.76
480 K | 1.2
490 K | 1.7
500 K | 2.5

CCCCCCCC/C=C\CCCOC(C)=O [(Z)-tridec-4-enyl acetate]
Settings | vapor or sublimation pressure [kPa]
298 K | 0.00012
310 K | 0.00042
320 K | 0.0011
330 K | 0.0028
340 K | 0.0065
350 K | 0.0142
360 K | 0.029
370 K | 0.058
380 K | 0.11
390 K | 0.2
400 K | 0.34
410 K | 0.57
420 K | 0.92
430 K | 1.5
440 K | 2.2
450 K | 3.3
460 K | 4.8
470 K | 6.9
480 K | 9.6
490 K | 13
500 K | 18

CCOC(=O)/C=C(C)/C=C/C[C@@H](C)CCCC(C)C [ethyl (S,2E,4E)-3,7,11-trimethyldodeca-2,4-dienoate]
Settings | vapor or sublimation pressure [kPa]
298.15 K | 1.4e-05
310 K | 5.7e-05
320 K | 0.00017
330 K | 0.00047
340 K | 0.0012
350 K | 0.0029
360 K | 0.0065
370 K | 0.014
380 K | 0.028
390 K | 0.054
400 K | 0.1
410 K | 0.18
420 K | 0.3
430 K | 0.5
440 K | 0.81
450 K | 1.3
460 K | 1.9
470 K | 2.8
480 K | 4.1
490 K | 5.8
500 K | 8

C#CCOC(=O)/C=C(C)/C=C/CC(C)CCCC(C)C (configuration not stated) [prop-2-ynyl (2E,4E)-3,7,11-trimethyldodeca-2,4-dienoate]
Settings | vapor or sublimation pressure [kPa]
298.15 K | 4.2e-06
310 K | 1.9e-05
320 K | 6.1e-05
330 K | 0.00018
340 K | 0.00049
350 K | 0.0012
360 K | 0.0029
370 K | 0.0065
380 K | 0.014
390 K | 0.028
400 K | 0.053
410 K | 0.098
420 K | 0.17
430 K | 0.29
440 K | 0.49
450 K | 0.78
460 K | 1.2
470 K | 1.8
480 K | 2.7
490 K | 3.9
500 K | 5.5
